According to patent US8748430B2, “Pyrrolidin-3yl-methylamine quinoxaline derivatives” (Hoffmann-La Roche Inc, priority 2008, dated 2014):

What follows are molecules tested against T1, human orexin-2 (hOX2) receptor (Homo sapiens, UniProt O43614) (assay: Intracellular Ca2+ mobilization assay (FLIPR), antagonism of orexin-A at EC80). Conditions: CHO(dHFr-) cells stably expressing hOX2; orexin-A at EC80 as agonist; antagonist applied 25 min before; Kb=IC50/(1+[A]/EC50); read-out: Kb (μM) OX2R (human).
T1 construct: expressed in transfected cells
T1 sequence (O43614 1-444): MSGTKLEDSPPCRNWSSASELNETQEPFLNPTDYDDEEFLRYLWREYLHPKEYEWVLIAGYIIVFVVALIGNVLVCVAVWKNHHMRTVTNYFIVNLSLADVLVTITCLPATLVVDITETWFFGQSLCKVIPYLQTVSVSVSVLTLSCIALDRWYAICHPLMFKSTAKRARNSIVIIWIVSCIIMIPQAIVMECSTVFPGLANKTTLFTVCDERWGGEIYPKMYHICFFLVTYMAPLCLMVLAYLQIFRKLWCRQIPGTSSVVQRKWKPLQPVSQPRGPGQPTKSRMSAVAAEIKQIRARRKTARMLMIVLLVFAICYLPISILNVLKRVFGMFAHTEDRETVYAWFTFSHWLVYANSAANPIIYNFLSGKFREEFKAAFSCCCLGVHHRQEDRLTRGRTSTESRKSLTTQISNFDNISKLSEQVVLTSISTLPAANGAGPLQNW
Assay type: cell-based
Description: Intracellular Ca^2+ Mobilization Assay
The Chinese Hamster Ovary (dHFr-) mutant cell line stably expressing human orexin-1 (hOX1) or human orexin-2 (hOX2) receptors were maintained in Dulbecco's Modified Eagle Medium (1×) with GlutaMax™1, 4500 mg/L D-Glucose and Sodium Pyruvate (Catalog No. 31966-021, Invitrogen, Carlsbad, Calif.), 5% dialyzed fetal calf serum (Catalog No. 26400-044), 100 μg/ml penicillin and 100 μg/ml streptomycin. The cells were seeded at 5×10^4 cells/well in the poly-D-lysine treated, 96-well, black/clear-bottomed plates (Catalog No. BD356640, BD Biosciences, Palo Alto, Calif.). 24 h later, the cells were loaded for 1 h at 37° C. with 4 μM Flou-4 acetoxymethyl ester (Catalog No. F-14202, Molecular Probes, Eugene, Oreg.) in FLIPR buffer (1×HBSS, 20 mM HEPES, 2.5 mM Probenecid). Hanks' Balanced Salt Solution (HBSS) (10×) (catalog No. 14065-049) and HEPES (1M) (catalog No. 15630-056) were purchased from Invitrogen, Carlsbad, Calif. Probenecid (250 mM) (catalog No. P8761) was from Sigma, Buchs, Switzerland. The cells were washed five times with FLIPR buffer to remove excess dye and intracellular calcium mobilization, [Ca^2+]i were measured using a Fluorometric Imaging Plate Reader (FLIPR-96, Molecular Devices, Menlo Park, Calif.) as described previously (Malherbe et al., Mol. Pharmacol., 64, 823-832, 2003). Orexin A (catalog No. 1455, Toris Cookson Ltd, Bristol, UK) was used as agonist. Orexin A ([…] stock solution in DMSO) was diluted in FLIPR buffer+0.1% BSA. The EC50 and EC80 values of orexin-A were measured daily from standard agonist concentration-response curves in CHO(dHFr-)-OX1R and -OX2R cell lines. All compounds were dissolved in 100% DMSO. Inhibition curves were determined by addition of 11 concentrations (0.0001-10 μM) of inhibitory compounds and using EC80 value of orexin-A as agonist (a concentration which gave 80% of max agonist response, determined daily). The antagonists were applied 25 min (incubation at 37° C.) before the application of the agonist. Responses were measured as peak increase in fluorescence minus basal, normalized to the maximal stimulatory effect induced by EC80 value of orexin-A or orexin-B. Inhibition curves were fitted according to the Hill equation: y=100/(1+(x/IC50)^nH), where nH=slope factor using Excel-fit 4 software (Microsoft). Kb values were calculated according to the following equation Kb=IC50/(1+[A]/EC50) where A is the concentration of agonist added which is very close to agonist EC80 value, and IC50 and EC50 values were derived from the antagonist inhibition and orexin-A or B agonist curves, respectively.

Row | Kb | SMILES
1 | 0.304 µM | Cc1ccc(C(F)(F)F)c(C(=O)N2CC[C@@H](CNc3nc4ccc(Cl)cc4o3)C2)c1 [Example 14, {(S)-3-[(6-Chloro-benzooxazol-2-ylamino)-methyl]-pyrrolidin-1-yl}-(5-methyl-2-trifluoromethyl-phenyl)-methanone]
2 | 0.539 µM | Cc1ccc(Cl)c(C(=O)N2CC[C@@H](CNc3cnc4cc(Cl)ccc4n3)C2)c1 [Example 31, (2-Chloro-5-methyl-phenyl)-{(S)-3-[(6-chloro-quinoxalin-2-ylamino)-methyl]-pyrrolidin-1-yl}-methanone]
3 | 0.0829 µM | O=C(c1cnoc1-c1ccccc1)N1CC[C@@H](CNc2nc3ccc(F)cc3s2)C1 [Example 8, {(S)-3-[(6-Fluoro-benzothiazol-2-ylamino)-methyl]-pyrrolidin-1-yl}-(5-phenyl-isoxazol-4-yl)-methanone]
4 | 0.337 µM | Cc1ccc(Cl)c(C(=O)N2CC[C@@H](CNc3nc4ccc(F)cc4s3)C2)c1 [Example 9, (2-Chloro-5-methyl-phenyl)-{(S)-3-[(6-fluoro-benzothiazol-2-ylamino)-methyl]-pyrrolidin-1-yl}-methanone]
5 | 0.115 µM | Cc1ccc(C(F)(F)F)c(C(=O)N2CC[C@@H](CNc3nc4ccc(F)cc4s3)C2)c1 [Example 6, {(S)-3-[(6-Fluoro-benzothiazol-2-ylamino)-methyl]-pyrrolidin-1-yl}-(5-methyl-2-trifluoromethyl-phenyl)-methanone]
6 | 0.34 µM | O=C(c1cnoc1-c1ccccc1)N1CC[C@@H](CNc2cnc3cc(Cl)ccc3n2)C1 [Example 30, {(S)-3-[(6-Chloro-quinoxalin-2-ylamino)-methyl]-pyrrolidin-1-yl}-(5-phenyl-isoxazol-4-yl)-methanone]
7 | 0.675 µM | COc1ccc(C)cc1C(=O)N1CC[C@@H](CNc2nc3cccc(F)c3o2)C1 [Example 25, {(S)-3-[(7-Fluoro-benzooxazol-2-ylamino)-methyl]-pyrrolidin-1-yl}-(2-methoxy-5-methyl-phenyl)-methanone]
